# From patent publication EP2966448B1, “METHOD FOR THE PREDICTION OR PROGNOSIS OF THE RESPONSE OF A HUMAN SUBJECT SUFFERING FROM CANCER TO TREATMENT WITH AN ANTAGONIST OF THE NK1 RECEPTOR” (priority 2013, dated 2014)
# Like-named read-outs stand apart in the source and are kept apart here.
# Experiments:
# [1] = test system: human primary tumor cells; test: Inhibition of primary tumor cell cultures vs absence or presence of ERK  protein (Example 3; tumor type per table line); assay type: cell-based; conditions: for Percentage of inhibition of cell cultures: 100 micromolar
# Protocol: (§1) Cell cultures. […] Briefly, small pieces of the tumors were digested into a hyaluronidase solution (Sigma-Aldrich, USA) at a concentration of 1 mg/ml during 15 minutes at 37°C, and then they were treated with 6 mg/ml of collagenase type IV (Invitrogen) during 2 hours at 37°C. Consecutively, cells were washed, and resuspended in the DMEM culture medium with high concentration of glucose (Dulbecco's Modified Eagle's Medium, Invitrogen) supplemented with 1% of antibiotics-antimycotics (Invitrogen) and with 1% of sodium pyruvate (Invitrogen), and the cells were seeded in culture slides at a concentration of 10.000 cells per square centimeter. When cells reached confluence, the adherent cells were separated using sterile trypsin at 0,5% (Invitrogen) and they were used among passages 3 and 9. For the assays shown next, tumor cells were seeded on slides at a concentration of 25.000 cells per well. A total of 6 wells containing the tumor cells were used as survival control. […] All the cultures were kept during 48 hours and later on recollected for their analysis.
# Consecutively, the cells were placed in cultures in the presence of several antagonists of the NK1 receptor.
# In each case it was determined the presence or absence of the downstream effector in the MAP Kinases ERK pathway.
# To determine the presence of the ERK protein, it was performed a Western Blot technique, using as primary antibody: Phospho-p44/42 MAPK (Erk1/2) (Thr202/Tyr204) (D13.14.4E) XP® Rabbit mAb (4370, Cell Signalling). To determine the presence of the MEK protein, it was performed the Western Blot technique, using as primary antibody Phospho-MEK1/2 (Ser217/221) (9121, Cell Signalling).
# The antibody against NK1 receptor (Table 21) was used at 1/50 concentration. The percentages of inhibition are expressed in percentages of variation in relation to control ± standard deviation.
# [2] = test system: human primary tumor cells; test: Inhibition of primary tumor cell cultures vs amplification of the gene encoding the NK1 receptor (Example 6; tumor type per table line); assay type: cell-based; conditions: for Percentage of inhibition of cell cultures: 100 micromolar
# Protocol: as §1
# The presence or absence of the amplification of the gene encoding for the NK1 receptor was determined, and then the cells were cultured in the presence of several antagonists of the NK1 receptor.
# For each case, the presence or absence of amplification of the gene encoding for the NK1 receptor was determined.
# In order to determine the presence of the amplification (increase in the number of copies) of the gene encoding the NK1 receptor (TAC1R), it was used the comparative genomic hybridization technique (CGH Array). Firstly genomic DNA was extracted from each case. Later, it was performed the marking and hybridization of the DNA of each sample together with DNA of a commercial reference without genomic alterations (from masculine or feminine sex, depending on the gender of the patient from whom the samples were obtained). The Array is Sureprint G3 Human CGH Microarray from the company Agilent was used, with an average separation between probes of 5.3Kb and 4.6Kb for the genes RefSeq. The reading of the microarray was done with the DNA Microarray Scanner G2565CA from Agilent, at a resolution of 3 µm. The analysis of the results was performed with the software Cytogenomics v 2.0.6.0 from Agilent with ADM-2: 6.0; Centralization: ON (Threshold: 6.0, Bin size: 10); Fuzzy zero: ON; Aberration filters: ON (minProbes=5 and minAvgAbsLopRatio= 0,5); Feature Level Filters : ON. The genomic coordinates are coincident with the NCBI36genome (hg18). Cases were distributed in two groups: Group I for those cases without the amplification of the gene encoding the NK1 receptor (locus 2p13.1-p12), and Group II for those cases with amplification of the gene encoding the NK1receptor (locus 2p13.1-p12).
# The antibody against NK1 receptor (Table 36) was used at 1/50 concentration. The percentages of inhibition are expressed in percentages of variation in relation to control ± standard deviation.
# Endometrium carcinoma = test: cells; conditions: Homo sapiens, 1 micromolar
# Protocol: Cell cultures. To obtain tumor cells from human primary tumors we used the method described in De Bari et al. (De Bari et al. 2001). Briefly, small pieces of the tumors were digested into a hyaluronidase solution (Sigma-Aldrich, USA) at a concentration of 1 mg/ml during 15 minutes at 37°C, and then they were treated with 6 mg/ml of collagenase type IV (Invitrogen) during 2 hours at 37°C. Consecutively, cells were washed, and resuspended in the DMEM culture medium with high concentration of glucose (Dulbecco's Modified Eagle's Medium, Invitrogen) supplemented with 1% of antibiotics-antimycotics (Invitrogen) and with 1% of sodium pyruvate (Invitrogen), and the cells were seeded in culture slides at a concentration of 10.000 cells per square centimeter. When cells reached confluence, the adherent cells were separated using sterile trypsin at 0,5% (Invitrogen) and they were used among passages 3 and 9. For the assays shown next, tumor cells were seeded on slides at a concentration of 25.000 cells per well. A total of 6 wells containing the tumor cells were used as survival control. […] All the cultures were kept during 48 hours and later on recollected for their analysis.
# Immunohistochemistry techniques. The presence of NK1 receptors was also analyzed using immunohistochemistry techniques. Briefly, a sample of each of the cultures of the cell lines used in the present invention, was centrifuged (5 minutes at 1.500 rpm) and the pellet obtained was dehydrated using increasing concentrations of ethanol and, finally, xylol. Then, said dehydrated samples were embedded in paraffin, creating a block of cells. Such paraffin blocks were cut with a microtome at 5 microns thickness, and were placed on microscope slides adequate to perform immunohistochemistry techniques. Consecutively, they were de-paraffinized by immersing them in xylol, to be finally hydrated using a solution containing decreasing concentrations of ethanol, and finally submerged them into water. […] After this, the samples were left to cool down at room temperature for 10 minutes. The endogenous peroxidase activity was blocked with 3% peroxide of hydrogen for 30 minutes at room temperature. After washing the samples with 0.05 M of Tris buffer, they were incubated with 10% non-immune pork serum at for 30 minutes at room temperature. To analyze the expression of NK1 receptors, the cellular samples were incubated in the presence of anti-NK1 antibodies (S8305, Sigma-Aldrich) diluted 1:1000, overnight at 4°C. Afterwards, the samples were washed in Tris buffer 0.05 M at room temperature. The next step was the addition of Envision System-HRP (Dako) reagents for 30 minutes at room temperature. Then, the samples were washed again in Tris buffer 0.05 M and the immunoreactivity was visualized through light microscopy with a chromogenic solution containing 3,3'-Diaminobenzidine (DAB+; Dako, USA). To differentiate the cell nuclei, they were slightly stained with hematoxylin. As negative control, it was used samples not incubated with the primary antibody anti-NK1, which was replaced by non-immune serum. All the samples were evaluated.
# To value the immunostaining in each of the cases six cuts were performed to be analyzed by the immunohistochemistry technique. In each of the six cuts, it was counted cells in 20 fields (magnification 400x) using an Olympus microscope (model CX31). In each field it was counted the total number of cells and the number of cells presenting immunostaining, calculating afterwards the percentage of cells which presented immunostaining.
smiles,measurement,setting,value
Cc1cc(F)ccc1[C@H]1CNCCN1C(=O)N(C)[C@H](C)c1cc(C(F)(F)F)cc(C(F)(F)F)c1 [Vestipitant],Percentage of inhibition of cell cultures,"[1]; Gastric carcinoma (Adenocarcinoma), cases with presence of ERK",95±3 percentage
same,Percentage of inhibition of cell cultures,"[1]; Gastric carcinoma (Adenocarcinoma), cases without presence of ERK",24±4 percentage
same,Percentage of inhibition of cell cultures,"[1]; Glioma (astrocytoma), cases with presence of ERK",95±3 percentage
same,Percentage of inhibition of cell cultures,"[1]; Glioma (astrocytoma), cases without presence of ERK",27±4 percentage
same,Percentage of inhibition of cell cultures,"[1]; Lung carcinoma (non small cell lung carcinoma), cases with presence of ERK",95±5 percentage
same,Percentage of inhibition of cell cultures,"[1]; Lung carcinoma (non small cell lung carcinoma), cases without presence of ERK",26±2 percentage
same,Percentage of inhibition of cell cultures,"[1]; Lung carcinoma (small cell lung carcinoma), cases with presence of ERK",96±6 percentage
same,Percentage of inhibition of cell cultures,"[1]; Lung carcinoma (small cell lung carcinoma), cases without presence of ERK",27±4 percentage
same,Percentage of inhibition of cell cultures,"[1]; Melanoma (Nodular Melanoma), cases with presence of ERK",94±5 percentage
same,Percentage of inhibition of cell cultures,"[1]; Melanoma (Nodular Melanoma), cases without presence of ERK",25±3 percentage
same,Percentage of inhibition of cell cultures,"[1]; Non Hodgkin Lymphoma B (diffuse B cell lymphoma), cases with presence of ERK",96±3 percentage
same,Percentage of inhibition of cell cultures,"[1]; Non Hodgkin Lymphoma B (diffuse B cell lymphoma), cases without presence of ERK",24±4 percentage
same,Percentage of inhibition of cell cultures,"[1]; Non Hodgkin Lymphoma T (diffuse T cell lymphoma), cases with presence of ERK",92±4 percentage
same,Percentage of inhibition of cell cultures,"[1]; Non Hodgkin Lymphoma T (diffuse T cell lymphoma), cases without presence of ERK",25±2 percentage
same,Percentage of inhibition of cell cultures,"[1]; Ovarian carcinoma (Adenocarcinoma), cases with presence of ERK",95±5 percentage
same,Percentage of inhibition of cell cultures,"[1]; Ovarian carcinoma (Adenocarcinoma), cases without presence of ERK",24±2 percentage
same,Percentage of inhibition of cell cultures,"[1]; Pancreatic carcinoma (Adenocarcinoma), cases with presence of ERK",93±4 percentage
same,Percentage of inhibition of cell cultures,"[1]; Pancreatic carcinoma (Adenocarcinoma), cases without presence of ERK",24±34 percentage
same,Percentage of inhibition of cell cultures,"[1]; Prostate carcinoma, cases with presence of ERK",94±4 percentage
same,Percentage of inhibition of cell cultures,"[1]; Prostate carcinoma, cases without presence of ERK",22±3 percentage
same,Percentage of inhibition of cell cultures,"[1]; Renal cell carcinoma (clear cell renal cell carcinoma), cases with presence of ERK",92±2 percentage
same,Percentage of inhibition of cell cultures,"[1]; Renal cell carcinoma (clear cell renal cell carcinoma), cases without presence of ERK",25±2 percentage
same,Percentage of inhibition of cell cultures,"[1]; Thyroid carcinoma (follicular carcinoma), cases with presence of ERK",94±4 percentage
same,Percentage of inhibition of cell cultures,"[1]; Thyroid carcinoma (follicular carcinoma), cases without presence of ERK",25±3 percentage
same,Percentage of inhibition of cell cultures,"[1]; Thyroid carcinoma (papillary carcinoma), cases with presence of ERK",96±3 percentage
same,Percentage of inhibition of cell cultures,"[1]; Thyroid carcinoma (papillary carcinoma), cases without presence of ERK",26±4 percentage
same,Percentage of inhibition of cell cultures,"[1]; Undifferentiated Pleomorphic Sarcoma (malignant fibrous histiocytoma grade 3), cases with presence of ERK",93±4 percentage
same,Percentage of inhibition of cell cultures,"[1]; Undifferentiated Pleomorphic Sarcoma (malignant fibrous histiocytoma grade 3), cases without presence of ERK",26±2 percentage
same,Percentage of inhibition of cell cultures,"[1]; Urinary bladder carcinoma (transitional cell carcinoma), cases with presence of ERK",97±5 percentage
same,Percentage of inhibition of cell cultures,"[1]; Urinary bladder carcinoma (transitional cell carcinoma), cases without presence of ERK",24±5 percentage
same,inhibition of cell proliferation,"[1]; cancer cell cultures that show more presence of ERK, compared, non-peptidic antagonists 100 micromolar, antibody 1/50",higher inhibition
same,Percentage of inhibition of cell cultures,"[2]; Breast carcinoma (ductal adenocarcinoma), Cases with amplification of the gene that encodes for the NK1 receptor",94±6 percentage
same,Percentage of inhibition of cell cultures,"[2]; Breast carcinoma (ductal adenocarcinoma), Cases without amplification of the gene that encodes for the NK1 receptor",24±3 percentage
same,Percentage of inhibition of cell cultures,"[2]; Burkitt Lymphoma, Cases with amplification of the gene that encodes for the NK1 receptor",97±5 percentage
same,Percentage of inhibition of cell cultures,"[2]; Burkitt Lymphoma, Cases without amplification of the gene that encodes for the NK1 receptor",23±5 percentage
same,Percentage of inhibition of cell cultures,"[2]; Carcinoma of the uterine cervix (Squamous cell carcinoma), Cases with amplification of the gene that encodes for the NK1 receptor",94±6 percentage
same,Percentage of inhibition of cell cultures,"[2]; Carcinoma of the uterine cervix (Squamous cell carcinoma), Cases without amplification of the gene that encodes for the NK1 receptor",26±6 percentage
same,Percentage of inhibition of cell cultures,"[2]; Colon carcinoma (Adenocarcinoma), Cases with amplification of the gene that encodes for the NK1 receptor",93±3 percentage
same,Percentage of inhibition of cell cultures,"[2]; Colon carcinoma (Adenocarcinoma), Cases without amplification of the gene that encodes for the NK1 receptor",24±4 percentage
same,Percentage of inhibition of cell cultures,"[2]; Endometrium carcinoma, Cases with amplification of the gene that encodes for the NK1 receptor",95±5 percentage
same,Percentage of inhibition of cell cultures,"[2]; Endometrium carcinoma, Cases without amplification of the gene that encodes for the NK1 receptor",23±5 percentage
same,Percentage of inhibition of cell cultures,"[2]; Gastric carcinoma (Adenocarcinoma), Cases with amplification of the gene that encodes for the NK1 receptor",94±4 percentage
same,Percentage of inhibition of cell cultures,"[2]; Gastric carcinoma (Adenocarcinoma), Cases without amplification of the gene that encodes for the NK1 receptor",25±5 percentage
same,Percentage of inhibition of cell cultures,"[2]; Glioma (astrocytoma), Cases with amplification of the gene that encodes for the NK1 receptor",94±7 percentage
same,Percentage of inhibition of cell cultures,"[2]; Glioma (astrocytoma), Cases without amplification of the gene that encodes for the NK1 receptor",26±5 percentage
same,Percentage of inhibition of cell cultures,"[2]; Lung carcinoma (non small cell lung carcinoma), Cases with amplification of the gene that encodes for the NK1 receptor",93±5 percentage
same,Percentage of inhibition of cell cultures,"[2]; Lung carcinoma (non small cell lung carcinoma), Cases without amplification of the gene that encodes for the NK1 receptor",24±4 percentage
same,Percentage of inhibition of cell cultures,"[2]; Lung carcinoma (small cell lung carcinoma), Cases with amplification of the gene that encodes for the NK1 receptor",94±4 percentage
same,Percentage of inhibition of cell cultures,"[2]; Lung carcinoma (small cell lung carcinoma), Cases without amplification of the gene that encodes for the NK1 receptor",25±3 percentage
same,Percentage of inhibition of cell cultures,"[2]; Melanoma (Nodular Melanoma), Cases with amplification of the gene that encodes for the NK1 receptor",96±5 percentage
same,Percentage of inhibition of cell cultures,"[2]; Melanoma (Nodular Melanoma), Cases without amplification of the gene that encodes for the NK1 receptor",24±6 percentage
same,Percentage of inhibition of cell cultures,"[2]; Non Hodgkin Lymphoma B (diffuse B cell lymphoma), Cases with amplification of the gene that encodes for the NK1 receptor",94±6 percentage
same,Percentage of inhibition of cell cultures,"[2]; Non Hodgkin Lymphoma B (diffuse B cell lymphoma), Cases without amplification of the gene that encodes for the NK1 receptor",27±5 percentage
same,Percentage of inhibition of cell cultures,"[2]; Non Hodgkin Lymphoma T (diffuse T cell lymphoma), Cases with amplification of the gene that encodes for the NK1 receptor",95±4 percentage
same,Percentage of inhibition of cell cultures,"[2]; Non Hodgkin Lymphoma T (diffuse T cell lymphoma), Cases without amplification of the gene that encodes for the NK1 receptor",29±3 percentage
same,Percentage of inhibition of cell cultures,"[2]; Ovarian carcinoma(Adenocarcinoma), Cases with amplification of the gene that encodes for the NK1 receptor",96±5 percentage
same,Percentage of inhibition of cell cultures,"[2]; Ovarian carcinoma(Adenocarcinoma), Cases without amplification of the gene that encodes for the NK1 receptor",25±4 percentage
same,Percentage of inhibition of cell cultures,"[2]; Pancreatic carcinoma (Adenocarcinoma), Cases with amplification of the gene that encodes for the NK1 receptor",93±4 percentage
same,Percentage of inhibition of cell cultures,"[2]; Pancreatic carcinoma (Adenocarcinoma), Cases without amplification of the gene that encodes for the NK1 receptor",25±3 percentage
same,Percentage of inhibition of cell cultures,"[2]; Prostate carcinoma, Cases with amplification of the gene that encodes for the NK1 receptor",96±6 percentage
same,Percentage of inhibition of cell cultures,"[2]; Prostate carcinoma, Cases without amplification of the gene that encodes for the NK1 receptor",25±6 percentage
same,Percentage of inhibition of cell cultures,"[2]; Renal cell carcinoma (clear cell renal cell carcinoma), Cases with amplification of the gene that encodes for the NK1 receptor",94±5 percentage
same,Percentage of inhibition of cell cultures,"[2]; Renal cell carcinoma (clear cell renal cell carcinoma), Cases without amplification of the gene that encodes for the NK1 receptor",27±4 percentage
same,Percentage of inhibition of cell cultures,"[2]; Thyroid carcinoma (follicular carcinoma), Cases with amplification of the gene that encodes for the NK1 receptor",94±6 percentage
same,Percentage of inhibition of cell cultures,"[2]; Thyroid carcinoma (follicular carcinoma), Cases without amplification of the gene that encodes for the NK1 receptor",25±5 percentage
same,Percentage of inhibition of cell cultures,"[2]; Thyroid carcinoma (papillary carcinoma), Cases with amplification of the gene that encodes for the NK1 receptor",97±4 percentage
same,Percentage of inhibition of cell cultures,"[2]; Thyroid carcinoma (papillary carcinoma), Cases without amplification of the gene that encodes for the NK1 receptor",26±3 percentage
same,Percentage of inhibition of cell cultures,"[2]; Undifferentiated Pleomorphic Sarcoma (malignant fibrous histiocytoma grade 3), Cases with amplification of the gene that encodes for the NK1 receptor",95±7 percentage
same,Percentage of inhibition of cell cultures,"[2]; Undifferentiated Pleomorphic Sarcoma (malignant fibrous histiocytoma grade 3), Cases without amplification of the gene that encodes for the NK1 receptor",27±4 percentage
same,Percentage of inhibition of cell cultures,"[2]; Urinary bladder carcinoma (transitional cell carcinoma), Cases with amplification of the gene that encodes for the NK1 receptor",95±5 percentage
same,Percentage of inhibition of cell cultures,"[2]; Urinary bladder carcinoma (transitional cell carcinoma), Cases without amplification of the gene that encodes for the NK1 receptor",24±5 percentage
same,inhibition of cell proliferation,"[2]; cancer cell cultures which show amplification in the genomic region encoding the NK1 receptor, compared, non-peptidic antagonists 100 micromolar, antibody 1/50",higher inhibition
same,inhibition at 1 µM,"Endometrium carcinoma; read-out: Percentage of inhibition of cell cultures, NK1 receptor immunostaining Group 1 (less than 20% of the cells)",15 ± 3%
same,inhibition at 1 µM,"Endometrium carcinoma; read-out: Percentage of inhibition of cell cultures, NK1 receptor immunostaining Group 2 (20-80% of the cells)",44 ± 3%
same,inhibition at 1 µM,"Endometrium carcinoma; read-out: Percentage of inhibition of cell cultures, NK1 receptor immunostaining Group 3 (more than 80% of the cells)",93 ± 6%
same,inhibition at 1 µM,"Endometrium carcinoma; read-out: Percentage of inhibition of cell cultures, NK1 receptor immunostaining Intensity grade 1",18 ± 2%
same,inhibition at 1 µM,"Endometrium carcinoma; read-out: Percentage of inhibition of cell cultures, NK1 receptor immunostaining Intensity grade 2",47 ± 4%
same,inhibition at 1 µM,"Endometrium carcinoma; read-out: Percentage of inhibition of cell cultures, NK1 receptor immunostaining Intensity grade 3",93 ± 5%
